Results as given in the NIST ThermoML archive (doi:10.1016/j.jct.2016.03.026).

Test: xn = mol fraction of the nth substance listed
Conditions: Fluid (supercritical or subcritical phases); for mass density: Vibrating tube method; for speed of sound: Frequency=5 MHz, Pulse-echo method

O=C=O [carbon dioxide] + CO
Conditions	mass density [kg/m3]	speed of sound [m/s]
263.15 K, 19700 kPa, x1 = 0.97	1052.08	–
263.15 K, 19725 kPa, x1 = 0.97	1052.13	–
263.15 K, 19750 kPa, x1 = 0.97	1052.26	–
263.15 K, 19775 kPa, x1 = 0.97	1052.28	–
263.15 K, 19800 kPa, x1 = 0.97	1052.34	–
263.15 K, 19825 kPa, x1 = 0.97	1052.45	–
263.15 K, 19850 kPa, x1 = 0.97	1052.5	–
263.15 K, 19875 kPa, x1 = 0.97	1052.59	–
263.15 K, 19900 kPa, x1 = 0.97	1052.67	–
263.15 K, 19925 kPa, x1 = 0.97	1052.75	–
263.15 K, 19950 kPa, x1 = 0.97	1052.83	–
263.15 K, 19975 kPa, x1 = 0.97	1052.91	–
263.15 K, 20000 kPa, x1 = 0.97	1052.99	–
263.16 K, 3280 kPa, x1 = 0.97	–	626.2
263.16 K, 3800 kPa, x1 = 0.97	–	633.5
263.16 K, 5050 kPa, x1 = 0.97	–	649.7
263.16 K, 6020 kPa, x1 = 0.97	–	661.8
263.16 K, 6170 kPa, x1 = 0.97	–	664.3
263.16 K, 8100 kPa, x1 = 0.97	–	687.5
263.16 K, 10020 kPa, x1 = 0.97	–	706.8
263.16 K, 14960 kPa, x1 = 0.97	–	752.4
263.16 K, 19890 kPa, x1 = 0.97	–	792.8
263.16 K, 24920 kPa, x1 = 0.97	–	829.4
263.16 K, 29960 kPa, x1 = 0.97	–	862.5
263.16 K, 34890 kPa, x1 = 0.97	–	892.6
263.16 K, 39940 kPa, x1 = 0.97	–	921
263.16 K, 44890 kPa, x1 = 0.97	–	947
263.16 K, 49990 kPa, x1 = 0.97	–	972.3
263.16 K, 54910 kPa, x1 = 0.97	–	995.6
263.16 K, 60010 kPa, x1 = 0.97	–	1018.3
263.16 K, 65090 kPa, x1 = 0.97	–	1039.8
263.16 K, 69970 kPa, x1 = 0.97	–	1059.9
263.16 K, 75000 kPa, x1 = 0.97	–	1079.5
263.16 K, 80150 kPa, x1 = 0.97	–	1098.9
263.16 K, 90130 kPa, x1 = 0.97	–	1134.4
263.16 K, 100140 kPa, x1 = 0.97	–	1168
263.16 K, 110060 kPa, x1 = 0.97	–	1199.3
263.16 K, 119960 kPa, x1 = 0.97	–	1228.9
263.16 K, 140000 kPa, x1 = 0.97	–	1284.7
263.16 K, 159900 kPa, x1 = 0.97	–	1335.8
263.16 K, 179990 kPa, x1 = 0.97	–	1383.3
263.16 K, 194490 kPa, x1 = 0.97	–	1415.5
263.18 K, 6060 kPa, x1 = 0.7534	–	735.8
263.18 K, 9710 kPa, x1 = 0.7534	–	770.9
263.18 K, 14730 kPa, x1 = 0.7534	–	813.5
263.18 K, 14950 kPa, x1 = 0.9803	–	747.6
263.18 K, 20160 kPa, x1 = 0.7534	–	854.1
263.18 K, 24940 kPa, x1 = 0.7534	–	886.4
263.18 K, 30090 kPa, x1 = 0.7534	–	918.5
263.18 K, 34860 kPa, x1 = 0.9803	–	887.4
263.18 K, 35000 kPa, x1 = 0.7534	–	946.9
263.18 K, 39910 kPa, x1 = 0.9803	–	916.3
263.18 K, 40020 kPa, x1 = 0.7534	–	974
263.18 K, 44820 kPa, x1 = 0.7534	–	998.5
263.18 K, 44980 kPa, x1 = 0.9803	–	943.5
263.18 K, 49950 kPa, x1 = 0.7534	–	1023.2
263.18 K, 50170 kPa, x1 = 0.9803	–	969
263.18 K, 55000 kPa, x1 = 0.9803	–	992.2
263.18 K, 55090 kPa, x1 = 0.7534	–	1046.8
263.18 K, 59880 kPa, x1 = 0.7534	–	1067.8
263.18 K, 60140 kPa, x1 = 0.9803	–	1015.5
263.18 K, 64760 kPa, x1 = 0.9803	–	1035.7
263.18 K, 64880 kPa, x1 = 0.7534	–	1088.8
263.18 K, 70160 kPa, x1 = 0.9803	–	1058.2
263.18 K, 70360 kPa, x1 = 0.7534	–	1110.8
263.18 K, 75340 kPa, x1 = 0.7534	–	1130
263.18 K, 75410 kPa, x1 = 0.9803	–	1078.8
263.18 K, 79750 kPa, x1 = 0.9803	–	1095.2
263.18 K, 80260 kPa, x1 = 0.7534	–	1148.4
263.18 K, 89760 kPa, x1 = 0.7534	–	1182.3
263.18 K, 89940 kPa, x1 = 0.9803	–	1132.1
263.18 K, 99680 kPa, x1 = 0.9803	–	1165
263.18 K, 100040 kPa, x1 = 0.7534	–	1216.8
263.18 K, 109950 kPa, x1 = 0.9803	–	1197.7
263.18 K, 110590 kPa, x1 = 0.7534	–	1250.3
263.18 K, 119810 kPa, x1 = 0.7534	–	1278.1
263.18 K, 120700 kPa, x1 = 0.9803	–	1230.1
263.18 K, 140780 kPa, x1 = 0.9803	–	1286.1
263.18 K, 141280 kPa, x1 = 0.7534	–	1338.3
263.18 K, 159890 kPa, x1 = 0.7534	–	1386.5
263.18 K, 160950 kPa, x1 = 0.9803	–	1337.6
263.18 K, 179550 kPa, x1 = 0.7534	–	1433.7
263.18 K, 179550 kPa, x1 = 0.9803	–	1382.1
263.19 K, 6000 kPa, x1 = 0.8502	–	691.2
263.19 K, 9880 kPa, x1 = 0.8502	–	731.2
263.19 K, 14650 kPa, x1 = 0.8502	–	773.8
263.19 K, 19850 kPa, x1 = 0.8502	–	814.7
263.19 K, 24990 kPa, x1 = 0.8502	–	850.9
263.19 K, 29690 kPa, x1 = 0.8502	–	881.1
263.19 K, 35020 kPa, x1 = 0.8502	–	912.8
263.19 K, 40080 kPa, x1 = 0.8502	–	940.7
263.19 K, 44910 kPa, x1 = 0.8502	–	965.8
263.19 K, 50170 kPa, x1 = 0.8502	–	991.7
263.19 K, 55230 kPa, x1 = 0.8502	–	1015.1
263.19 K, 60100 kPa, x1 = 0.8502	–	1036.7
263.19 K, 64650 kPa, x1 = 0.8502	–	1056
263.19 K, 70030 kPa, x1 = 0.8502	–	1078
263.19 K, 74380 kPa, x1 = 0.8502	–	1095.2
263.19 K, 80050 kPa, x1 = 0.8502	–	1116.4
263.19 K, 90050 kPa, x1 = 0.8502	–	1152.6
263.19 K, 100540 kPa, x1 = 0.8502	–	1187.6
263.19 K, 110230 kPa, x1 = 0.8502	–	1218.2
263.19 K, 120050 kPa, x1 = 0.8502	–	1247.8
263.19 K, 140150 kPa, x1 = 0.8502	–	1303.4
263.19 K, 150270 kPa, x1 = 0.8502	–	1329.1
273.15 K, 4600 kPa, x1 = 0.97	940.38	–
273.15 K, 4625 kPa, x1 = 0.97	940.6	–
273.15 K, 4650 kPa, x1 = 0.97	940.77	–
273.15 K, 4675 kPa, x1 = 0.97	941.01	–
273.15 K, 4700 kPa, x1 = 0.97	941.48	–
273.15 K, 4725 kPa, x1 = 0.97	941.61	–
273.15 K, 4750 kPa, x1 = 0.97	941.7	–
273.15 K, 4775 kPa, x1 = 0.97	942	–
273.15 K, 4800 kPa, x1 = 0.97	942.41	–
273.15 K, 4825 kPa, x1 = 0.97	942.58	–
273.15 K, 4850 kPa, x1 = 0.97	942.76	–
273.15 K, 4875 kPa, x1 = 0.97	942.95	–
273.15 K, 4900 kPa, x1 = 0.97	943.14	–
273.15 K, 4925 kPa, x1 = 0.97	943.32	–
273.15 K, 4950 kPa, x1 = 0.97	943.48	–
273.15 K, 4975 kPa, x1 = 0.97	943.65	–
273.15 K, 5000 kPa, x1 = 0.97	–	570.5
